The values below come from US10202351B2, “Pyrazolyl derivatives as pest control agents” (BAYER ANIMAL HEALTH GMBH, priority 2015, dated 2019).

One data set has as its system Phaedon cochleariae. Description: Phaedon cochleariae spray test. It is filed as in vivo. Conditions: larvae on Chinese cabbage leaf discs, after 7 days. The procedure:
Solvent: 78.0 parts by weight of acetone • • 1.5 parts by weight of dimethylformamide Emulsifier: alkylaryl polyglycol ether […] To produce further test concentrations, the formulation is diluted with emulsifier-containing water. Discs of Chinese cabbage leaves (Brassica pekinensis) are sprayed with an active ingredient formulation of the desired concentration and, after drying, populated with larvae of the mustard beetle (Phaedon cochleariae).

Another data set relates to Tetranychus urticae. The experiment in a line: Tetranychus urticae spray test, OP-resistant. It is filed as in vivo. Conditions: all stages on bean leaf discs, after 6 days. The procedure: Solvent: 78.0 parts by weight of acetone • • 1.5 parts by weight of dimethylformamide Emulsifier: alkylaryl polyglycol ether […] To produce further test concentrations, the formulation is diluted with emulsifier-containing water. Discs of bean leaves (Phaseolus vulgaris) infested with all stages of the greenhouse red spider mite (Tetranychus urticae) are sprayed with an active ingredient formulation of the desired concentration.

A further data set relates to Musca domestica. Description: Musca domestica test. It is filed as in vivo. Conditions: application rate 100 ppm, adult houseflies, kill after 2 days. The procedure:
(§1) Solvent: dimethyl sulfoxide
(§2) To produce a suitable preparation of active compound, 10 mg of active compound are mixed with 0.5 ml of dimethyl sulfoxide, and the concentrate is diluted with water to the desired concentration.
Vessels containing a sponge treated with sugar solution and the active ingredient formulation of the desired concentration are populated with 10 adult houseflies (Musca domestica)).
After 2 days, the kill in % is determined. 100% means that all of the flies have been killed; 0% means that none of the flies have been killed.

The subject of the next data set is Spodoptera frugiperda. Description: Spodoptera frugiperda spray test. It is filed as in vivo. Particulars: application rate 100 g/ha, caterpillars on maize leaf discs, after 7 days. The procedure: Solvent: 78.0 parts by weight of acetone • • 1.5 parts by weight of dimethylformamide Emulsifier: alkylaryl polyglycol ether […] To produce further test concentrations, the formulation is diluted with emulsifier-containing water. Leaf discs of maize (Zea mays) are sprayed with an active compound formulation of the desired concentration and, after drying, populated with caterpillars of the armyworm (Spodoptera frugiperda).

A further data set deals with Boophilus microplus. The experiment in a line: Boophilus microplus injection test. It is filed as in vivo. Conditions: application rate 20 μg/animal, after 7 days, laying of fertile eggs. As to the method: Solvent: dimethyl sulfoxide […] The animals are transferred into dishes and kept in a climate-controlled room. Efficacy is assessed after 7 days by laying of fertile eggs. Eggs which are not visibly fertile are stored in a climate-controlled cabinet until the larvae hatch after about 42 days.

Data set [1] can be described thus: logP determination by HPLC on reversed-phase column (EEC Directive 79/831 Annex V.A8). It is filed as physicochemical.
The next data set relates to Lucilia cuprina. Description: Lucilia cuprina test. Conditions: application rate 100 ppm, L1 larvae, kill after 2 days. It is filed as in vivo. As to the method:
as §1, §2
About 20 L1 larvae of the Australian sheep blowfly (Lucilia cuprina) are transferred into a test vessel containing minced horsemeat and the active compound formulation of the desired concentration.
After 2 days, the kill in % is determined. 100% means that all the larvae have been killed; 0% means that no larvae have been killed.

The test system of data set [2] is Ctenocephalides felis. Description: Ctenocephalides felis oral test. It is filed as in vivo. Particulars: application rate 100 ppm in citrated cattle blood, kill after 2 days. An excerpt:
Solvent: dimethyl sulfoxide […] Dilution with citrated cattle blood gives the desired concentration. About 20 unfed adult cat fleas (Ctenocephalides felis) are placed into a chamber which is closed at the top and bottom with gauze. A metal cylinder whose bottom end is closed with parafilm is placed onto the chamber. The cylinder contains the blood/active ingredient formulation, which can be imbibed by the fleas through the parafilm membrane.

The test system of data set [3] is Ctenocephalides felis. The experiment in a line: Ctenocephalides felis in vitro contact test with adult cat fleas. It is filed as in vivo. Conditions: application rate 5 μg/cm^2 (500 g/ha), after 48 h, dead or moribund fleas. As to the method: After the solvent has evaporated off, the tubes are populated with 5-10 adult cat fleas (Ctenocephalides felis), sealed with a perforated plastic lid and incubated in a horizontal position at room temperature and ambient humidity. After 48 h, efficacy is determined. To this end, the tubes are stood upright and the fleas are knocked to the base of the tube. Fleas which remain motionless at the base or move in an uncoordinated manner are considered to be dead or moribund.

[4] abbreviates: Table 1, HPLC C18, acetonitrile/water with formic acid.
Where [5] appears, read: Table 3 intermediates, HPLC C18, acetonitrile/water with formic acid.

Regarding `Cc1cc(C(F)(C(F)(F)F)C(F)(F)F)cc(C)c1-n1cc(-c2ccc(F)c(NC(=O)c3ccncc3)c2F)cn1` [Example 9], the efficacy in the data set on Phaedon cochleariae (application rate 100 g/ha), in the data set on Tetranychus urticae (application rate 100 g/ha), with Musca domestica, in the data set on Spodoptera frugiperda, in the data set on Boophilus microplus and in the data set with Lucilia cuprina was 100% throughout. Also, the efficacy with Ctenocephalides felis [2] turned out to be 100%. Further, in data set [1] (setting [4]), the lgP entry is “lgP 3.92”.
In the case of `Cc1cc(C(F)(C(F)(F)F)C(F)(F)F)cc(C(F)(F)F)c1-n1cc(-c2ccc(F)c(NC(=O)c3ccc(C#N)nc3)c2)cn1` [Example 46], the efficacy in the data set on Phaedon cochleariae (application rate 100 g/ha), in the data set on Musca domestica, in the data set on Ctenocephalides felis [3], in the data set with Spodoptera frugiperda, in the data set on Boophilus microplus and in the data set with Lucilia cuprina was 100% in each case. The compound further had an efficacy in the data set on Ctenocephalides felis [2] of 100%.
For the compound `Cc1cc(C(F)(C(F)(F)F)C(F)(F)F)cc(C)c1-n1cc(-c2ccc(Cl)c(N)c2)cn1` [III-7, 2-chloro-5-[1-[2,6-dimethyl-4-[1,2,2,2-tetrafluoro-1-(trifluoromethyl)ethyl]phenyl]pyrazol-4-yl]aniline], the lgP result in [1] (setting [5]) is given as “lgP 4.93”; in [1] (synthesis example), 4.93.
Turning to `Cc1cc(C(F)(C(F)(F)F)C(F)(F)F)cc(C)c1-n1cc(-c2cccc(N)c2F)cn1` [III-10], the lgP entry in data set [1] (setting [5]) is “lgP 4.61”.
For `Cc1cc(C(F)(C(F)(F)F)C(F)(F)F)cc(C(F)(F)F)c1-n1cc(-c2ccc(F)c(NC(=O)c3ccc(F)nc3)c2F)cn1` [Example 40], the efficacy in the data set on Phaedon cochleariae (application rate 100 g/ha), in the data set with Tetranychus urticae (application rate 100 g/ha), with Musca domestica, with Spodoptera frugiperda, with Boophilus microplus and with Lucilia cuprina was 100% throughout. This compound had an efficacy in the data set with Ctenocephalides felis [2] of 100%.
As for `Cc1cc(C(F)(C(F)(F)F)C(F)(F)F)cc(C(F)(F)F)c1-n1cc(-c2cccc(NC(=O)c3ccc(C#N)nc3)c2F)cn1` [Example 69], the efficacy with Phaedon cochleariae (application rate 100 g/ha), in the data set with Ctenocephalides felis [3], in the data set on Spodoptera frugiperda, in the data set on Boophilus microplus, in the data set on Lucilia cuprina and in the data set on Ctenocephalides felis [2] was 100% each time.
`Cc1cc(C(F)(C(F)(F)F)C(F)(F)F)cc(C)c1-n1cc(-c2ccc(Cl)c(NC(=O)c3cccc(F)c3)c2)cn1` [Example 8] gave an efficacy in the data set with Boophilus microplus of 100%. Further, the lgP entry in data set [1] (setting [4]) is given as “lgP 5.59”.
For `Cc1cc(C(F)(C(F)(F)F)C(F)(F)F)cc(C(F)(F)F)c1-n1cc(-c2cc(NC(=O)c3ccnc(F)c3)ccc2F)cn1` [Example 2-1], the efficacy is 100% with Phaedon cochleariae (application rate 100 g/ha); 90% in the data set on Tetranychus urticae (application rate 100 g/ha); 100% with Musca domestica; 100% in the data set on Spodoptera frugiperda; 100% in the data set on Boophilus microplus; 98% in the data set with Lucilia cuprina. Moreover, the efficacy with Ctenocephalides felis [2] is on record as 95%.
Take `Cc1cc(C(F)(C(F)(F)F)C(F)(F)F)cc(C)c1-n1cc(-c2cnc(Cl)c(NC(=O)C3(C#N)CC3)c2)cn1` [Example 13]: the efficacy in the data set on Musca domestica came out at 80%; in the data set with Spodoptera frugiperda, 83%; in the data set on Boophilus microplus it was 100%; with Lucilia cuprina, 90%; with Ctenocephalides felis [2], 100%. The lgP entry in [1] (setting [4]) was “lgP 4.69”.
`Cc1cc(C(F)(C(F)(F)F)C(F)(F)F)cc(C(F)(F)F)c1-n1cc(-c2cc(NC(=O)c3ccncc3)ccc2F)cn1` [Example 2-2]: the efficacy came out at 100% in the data set on Phaedon cochleariae (application rate 100 g/ha); 90% in the data set on Tetranychus urticae (application rate 100 g/ha); 90% with Musca domestica; 100% in the data set on Spodoptera frugiperda; 100% with Boophilus microplus; 98% in the data set on Lucilia cuprina. The compound also returned an efficacy in the data set with Ctenocephalides felis [2] of 95%.
Turning to `Cc1cc(C(F)(C(F)(F)F)C(F)(F)F)cc(C)c1-n1cc(-c2ccc(Cl)c([N+](=O)[O-])c2)cn1` [II-7, 4-(4-chloro-3-nitrophenyl)-1-[2,6-dimethyl-4-[1,2,2,2-tetrafluoro-1-(trifluoromethyl)ethyl]phenyl]pyrazole], the lgP entry in data set [1] (setting [5]) is on record as “lgP 5.39”; in data set [1] (synthesis example) it was 5.39.
For the compound `Cc1cc(C(F)(C(F)(F)F)C(F)(F)F)cc(C)c1-n1cc(-c2ccc(Cl)c(NC(=O)c3ccccc3F)c2)cn1` [Example 10], the efficacy with Boophilus microplus came to 100%. Besides, in [1] (setting [4]), the lgP result is reported as “lgP 6.06”.
As for `O=[N+]([O-])c1cccc(-c2cnn(-c3c(Cl)cc(C(F)(F)F)cc3Cl)c2)c1` [II-1], the lgP entry in data set [1] (setting [5]) is “lgP 4.32”.
Turning to `Cc1cc(C(F)(C(F)(F)F)C(F)(F)F)cc(C(F)(F)F)c1-n1cc(-c2ccc(F)c(NC(=O)c3ccc(F)nc3)c2)cn1` [Example 39], the efficacy in the data set with Phaedon cochleariae (application rate 100 g/ha), in the data set with Tetranychus urticae (application rate 100 g/ha), in the data set with Musca domestica, in the data set on Spodoptera frugiperda, in the data set with Boophilus microplus and in the data set on Lucilia cuprina was 100% throughout. For the same compound, in the data set on Ctenocephalides felis [2], the efficacy is 100%.
As for `Cc1cc(C(F)(C(F)(F)F)C(F)(F)F)cc(C(F)(F)F)c1-n1cc(-c2ccc(F)c(NC(=O)C3CSC3)c2F)cn1` [Example 65], the efficacy in the data set on Phaedon cochleariae (application rate 100 g/ha) is 100%; in the data set with Tetranychus urticae (application rate 100 g/ha) it was 100%; in the data set on Musca domestica, 100%; in the data set on Spodoptera frugiperda it was 100%; in the data set with Boophilus microplus, 80%; with Lucilia cuprina, 100%. In addition, the efficacy in the data set with Ctenocephalides felis [2] stood at 100%.
Turning to `Nc1cccc(-c2cnn(-c3c(Cl)cc(C(F)(F)F)cc3Cl)c2)c1` [III-1], the lgP result in data set [1] (setting [5]) is recorded as “lgP 2.90”.
As to `Cc1cc(C(F)(C(F)(F)F)C(F)(F)F)cc(C)c1-n1cc(-c2ccc(F)c(N)c2)cn1` [III-8], the lgP entry in data set [1] (setting [5]) is “lgP 4.47”.
For `Cc1cc(C(F)(C(F)(F)F)C(F)(F)F)cc(C)c1-n1cc(-c2ccnc(NC(=O)c3ccc(F)cc3)c2)cn1` [Example 14], the efficacy in the data set on Boophilus microplus is given as 80%. For the same compound, in data set [1] (setting [4]), the lgP entry is recorded as “lgP 4.69”.
Regarding `O=C(Nc1cccc(-c2cnn(-c3c(Cl)cc(C(F)(F)F)cc3Cl)c2)c1)c1ccncc1` [Example 3], the efficacy is on record as 100% in the data set on Phaedon cochleariae (application rate 500 g/ha), 90% with Tetranychus urticae (application rate 500 g/ha), 100% in the data set with Boophilus microplus and 90% with Ctenocephalides felis [2]. In addition, the lgP entry in data set [1] (setting [4]) is listed as “lgP 3.2”.
As to `Cc1cc(C(F)(C(F)(F)F)C(F)(F)F)cc(C)c1-n1cc(-c2ccc(F)c(N)c2F)cn1` [III-9], in data set [1] (setting [5]), the lgP entry is “lgP 4.81”.
In the case of `COc1cc(C(=O)Nc2cc(-c3cnn(-c4c(Cl)cc(C(F)(C(F)(F)F)C(F)(F)F)cc4Cl)c3)ccc2F)ccc1F` [Example 22], the efficacy in the data set with Phaedon cochleariae (application rate 100 g/ha), in the data set on Tetranychus urticae (application rate 100 g/ha), with Musca domestica, with Spodoptera frugiperda, with Boophilus microplus and with Lucilia cuprina was 100% in each case. The same compound came in with an efficacy in the data set with Ctenocephalides felis [2] of 100%.
For `Cc1cc(C(F)(C(F)(F)F)C(F)(F)F)cc(C(F)(F)F)c1-n1cc(-c2ccc(F)c(N(C)C(=O)c3ccc(F)nc3)c2)cn1` [Example 48], the efficacy with Phaedon cochleariae (application rate 100 g/ha), with Musca domestica, in the data set on Spodoptera frugiperda, in the data set with Boophilus microplus, with Lucilia cuprina and with Ctenocephalides felis [2] was 100% throughout.
